According to patent EP1196433B1, “CYCLIC PEPTIDE DERIVATIVES AS INHIBITORS OF INTEGRIN ALPHA v BETA 6” (Merck Patent GmbH, priority 1999, dated 2001):
pIC50: −log10 of the molar value. Non-standard residues stand in square brackets, D forms with d. Residues, ends and D or L forms follow the SMILES beside them.

Target: T1, αvβ6 Rezeptor (Homo sapiens, UniProt P06756+P18564)
T1 construct: Die Immobilisierung von löslichem αvβ6 Rezeptor auf Microtiterplatten
Assay: αvβ6 / fibronectin receptor binding test (competition of peptide with biotinylated fibronectin on immobilised integrin, ELISA read-out)
Conditions: for -log Q / Q (IC50[Substanz] / IC50[EMD 271293]): peptides Cyclo-(Arg-Gly-Asp-Leu-D-Asp-Ala-Leu-Arg-R^1), labelled by R^1; for -log Q: Q = IC50[Substanz] / IC50[EMD 271293]; for Q (IC50[Substanz] / IC50[EMD 271293]): ratio to comparison compound EMD 271293; for Q-Wert = IC50 Testpeptid / IC50 EMD 271293: standard Ac-RTDLDSLR-NH2, Q values of repeated experiments averaged
Description: αvβ6 / Fibronektin Rezeptorbindungstest:
Die hergestellten erfindungsgemäßen Peptide wurden in Lösung zusammen mit kompetetiv wirkenden Fibronektin an den immobiliserten αvβ6 Rezeptor gebunden und der Q-Wert als Maß für die Selektivität der Bindung des zu testenden Peptids an αvβ6 ermittelt. Der Q-Wert berechnet sich dabei aus dem Quotienten der IC50-Werte von Testpeptid und einem Standard. Als Standard diente das lineare Ac-RTDLDSLR-NH2 (Code EMD 271293) (Lit./Patent vgl Pytela et al. Science 231, 1559, (1986)). Der Bindungstest wurde im einzelnen wie folgt durchgeführt: • Die Immobilisierung von löslichem αvβ6 Rezeptor auf Microtiterplatten erfolgte durch Verdünnung der Proteinlösung in TBS++ und anschliessender Inkubation über Nacht bei 4°C (100 µl/Vertiefung). Unspezifische • Bindungsstellen wurden durch Inkubation (2 h, 37°C) mit 3% (w/v) BSA in TBS++ (200 µl/Vertiefung) blockiert. Überschüssiges BSA wurde durch dreimaliges Waschen mit TBSA++ entfernt. Peptide wurden seriell (1:10) in TBSA++ verdünnt und zusammen mit biotinyliertem Fibronektin (2 µg/ ml) mit dem immobilisierten Integrin inkubiert (50 µl Peptid + 50 µl Ligand pro Vertiefung; 2 h; 37°C). Nicht gebundenes Fibronektin und Peptide wurden durch dreimaliges Waschen mit TBSA++ entfernt. Die Detektion des gebundenen Fibronektin erfolgte durch Inkubation (1 h; 37 °C) mit einem alkalische-Phosphatase-gekoppelten anti-Biotin-Antikörper (Biorad) (1:20000 in TBSA++; 100 µl/Vertiefung). Nach dreimaligem Waschen mit TBSA++ erfolgte die kolorimetrische Detektion durch Inkubation (10-15 min; 25°C, im Dunkeln) mit Substratlösung (5 mg Nitrophenylphosphat, 1 ml Ethanolamin, 4 ml H2O; 100 µl/Vertiefung). Die Enzymreaktion wurde durch Zugabe von 0,4 M NaOH (100 µl/Vertiefung) gestoppt. Die Farbintensität wurde bei 405 nm im ELISA-Meßgerät bestimmt und gegen den Nullwert abgeglichen. Als Nullwert dienten Vertiefungen, die nicht mit Rezeptor beschichtet waren. Als Standard wurde Ac-RTDLDSLR-NH2 eingesetzt. Die IC50-Werte für die getesteten Peptide wurden aus einer Graphik abgelesen und daraus zusammen mit dem IC50-Wert des Standardpeptids der Q-Wert des erfindungsgemäßen Peptids ermittelt. Q-Wert = IC50 Testpeptid/IC50 Standard [formula] Q-Werte aus Versuchswiederholungen wurden gemittelt.

[1] = biotinylated fibronectin 2 µg/ml

T1 sequence (P06756 31-992 limits assumed): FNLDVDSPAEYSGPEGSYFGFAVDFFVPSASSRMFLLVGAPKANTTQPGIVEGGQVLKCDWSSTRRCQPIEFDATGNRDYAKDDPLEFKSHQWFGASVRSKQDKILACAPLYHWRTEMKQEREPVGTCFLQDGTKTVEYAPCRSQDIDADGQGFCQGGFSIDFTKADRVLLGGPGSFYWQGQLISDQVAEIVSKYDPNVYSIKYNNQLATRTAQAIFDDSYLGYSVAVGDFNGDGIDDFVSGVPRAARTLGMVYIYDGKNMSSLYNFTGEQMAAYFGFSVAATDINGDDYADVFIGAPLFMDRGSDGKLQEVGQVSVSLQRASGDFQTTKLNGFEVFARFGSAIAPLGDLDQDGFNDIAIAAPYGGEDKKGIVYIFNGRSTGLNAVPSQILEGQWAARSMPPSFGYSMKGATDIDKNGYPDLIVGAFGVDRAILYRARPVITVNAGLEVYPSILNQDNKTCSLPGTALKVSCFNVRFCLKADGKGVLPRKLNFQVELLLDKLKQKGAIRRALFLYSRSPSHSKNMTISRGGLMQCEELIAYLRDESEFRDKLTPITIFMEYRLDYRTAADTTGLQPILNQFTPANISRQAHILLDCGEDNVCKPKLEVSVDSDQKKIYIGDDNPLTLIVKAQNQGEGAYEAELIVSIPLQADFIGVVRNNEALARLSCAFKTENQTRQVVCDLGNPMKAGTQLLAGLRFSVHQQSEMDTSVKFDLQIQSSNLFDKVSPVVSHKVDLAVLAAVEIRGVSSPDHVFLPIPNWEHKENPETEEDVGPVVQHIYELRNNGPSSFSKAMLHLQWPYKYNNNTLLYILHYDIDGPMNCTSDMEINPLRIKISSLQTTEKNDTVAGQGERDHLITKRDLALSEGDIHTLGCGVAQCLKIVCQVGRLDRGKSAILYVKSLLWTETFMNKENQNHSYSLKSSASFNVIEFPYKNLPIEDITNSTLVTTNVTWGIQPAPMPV
T1 sequence (P18564 22-709 limits assumed): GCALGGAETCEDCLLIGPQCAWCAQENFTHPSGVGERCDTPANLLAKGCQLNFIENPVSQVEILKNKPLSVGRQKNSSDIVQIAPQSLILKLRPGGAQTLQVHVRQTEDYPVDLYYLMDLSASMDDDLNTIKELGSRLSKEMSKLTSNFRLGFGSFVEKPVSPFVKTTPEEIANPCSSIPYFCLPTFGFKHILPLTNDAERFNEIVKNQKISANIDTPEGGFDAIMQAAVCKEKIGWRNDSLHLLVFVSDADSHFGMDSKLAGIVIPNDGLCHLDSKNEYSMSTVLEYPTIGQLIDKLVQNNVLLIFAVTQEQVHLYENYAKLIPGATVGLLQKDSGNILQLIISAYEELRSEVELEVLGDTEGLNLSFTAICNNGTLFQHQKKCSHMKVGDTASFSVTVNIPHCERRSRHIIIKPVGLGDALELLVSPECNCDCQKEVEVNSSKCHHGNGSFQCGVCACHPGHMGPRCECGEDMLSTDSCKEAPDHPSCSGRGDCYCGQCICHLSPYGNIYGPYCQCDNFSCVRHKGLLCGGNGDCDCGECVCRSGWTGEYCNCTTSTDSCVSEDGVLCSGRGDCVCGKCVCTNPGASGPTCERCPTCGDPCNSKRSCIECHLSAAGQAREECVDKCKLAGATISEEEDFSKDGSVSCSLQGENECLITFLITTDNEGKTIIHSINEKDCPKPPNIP

-log Q | Q (IC50[Substanz] / IC50[EMD 271293]) | Q-Wert = IC50 Testpeptid / IC50 EMD 271293 [1] | pIC50 (IC50 of the standard peptide, printed in brackets beside its Q value, biotinylated fibronectin 2 µg/ml) | Molecule
-0,322 | 2,1 |  |  | CC(C)C[C@@H]1NC(=O)[C@H](C)NC(=O)[C@@H](CC(=O)O)NC(=O)[C@H](CC(C)C)NC(=O)[C@H](CC(=O)O)NC(=O)CNC(=O)[C@H](CCCNC(=N)N)NC(=O)CNC(=O)[C@H](CCCNC(=N)N)NC1=O [EMD 271591, cyclo-(RGDLdALRG)] (cyclo(RGDL[dD]ALRG))
1,301 | 0,05 |  |  | CC(C)C[C@@H]1NC(=O)[C@H](C)NC(=O)[C@@H](CC(=O)O)NC(=O)[C@H](CC(C)C)NC(=O)[C@H](CC(=O)O)NC(=O)CNC(=O)[C@H](CCCNC(=N)N)NC(=O)CNC(=O)CNC(=O)[C@H](CCCNC(=N)N)NC1=O [EMD 271592, cyclo-(RGDLdALRGG)] (cyclo(RGDL[dD]ALRGG))
1,337 | 0,046 |  |  | CC(C)C[C@@H]1NC(=O)[C@H](C)NC(=O)[C@@H](CC(=O)O)NC(=O)[C@H](CC(C)C)NC(=O)[C@H](CC(=O)O)NC(=O)CNC(=O)[C@H](CCCNC(=N)N)NC(=O)CNC(=O)CNC(=O)CNC(=O)CNC(=O)CNC(=O)[C@H](CCCNC(=N)N)NC1=O [EMD 272962, cyclo-(RGDLdALRGGGGG)] (cyclo(RGDL[dD]ALRGGGGG))
1,553 | 0,028 |  |  | cyclo-(RGDLdALR-Abu) [EMD 273035]
1,444 | 0,036 |  |  | cyclo-(RGDLdALR-Aha) [EMD 272959]
1,301 | 0,05 |  |  | CC(C)C[C@@H]1NC(=O)[C@H](C)NC(=O)[C@@H](CC(=O)O)NC(=O)[C@H](CC(C)C)NC(=O)[C@H](CC(=O)O)NC(=O)CNC(=O)[C@H](CCCNC(=N)N)NC(=O)CNC(=O)CNC(=O)CNC(=O)CNC(=O)CNC(=O)CNC(=O)[C@H](CCCNC(=N)N)NC1=O [EMD 271594, cyclo-(RGDLdALRGGGGGG)] (cyclo(RGDL[dD]ALRGGGGGG))
 |  | 0,046 |  | CC(C)C[C@@H]1NC(=O)[C@H](C)NC(=O)[C@@H](CC(=O)O)NC(=O)[C@H](CC(C)C)NC(=O)[C@H](CC(=O)O)NC(=O)CNC(=O)[C@H](CCCNC(=N)N)NC(=O)CNC(=O)CNC(=O)CNC(=O)CNC(=O)CNC(=O)[C@H](CCCNC(=N)N)NC1=O [compound 272962] (cyclo(RGDL[dD]ALRGGGGG))
 |  | 2,1 |  | CC(C)C[C@@H]1NC(=O)[C@H](C)NC(=O)[C@@H](CC(=O)O)NC(=O)[C@H](CC(C)C)NC(=O)[C@H](CC(=O)O)NC(=O)CNC(=O)[C@H](CCCNC(=N)N)NC(=O)CNC(=O)[C@H](CCCNC(=N)N)NC1=O [compound 271591] (cyclo(RGDL[dD]ALRG))
 |  | 0,033 |  | CC(C)C[C@@H]1NC(=O)[C@H](C)NC(=O)[C@@H](CC(=O)O)NC(=O)[C@H](CC(C)C)NC(=O)[C@H](CC(=O)O)NC(=O)CNC(=O)[C@H](CCCNC(=N)N)NC(=O)CNC(=O)CNC(=O)CNC(=O)CNC(=O)[C@H](CCCNC(=N)N)NC1=O [compound 272961] (cyclo(RGDL[dD]ALRGGGG))
1,481 | 0,033 |  |  | CC(C)C[C@@H]1NC(=O)[C@H](C)NC(=O)[C@@H](CC(=O)O)NC(=O)[C@H](CC(C)C)NC(=O)[C@H](CC(=O)O)NC(=O)CNC(=O)[C@H](CCCNC(=N)N)NC(=O)CNC(=O)CNC(=O)CNC(=O)CNC(=O)[C@H](CCCNC(=N)N)NC1=O [EMD 272961, cyclo-(RGDLdALRGGGG)] (cyclo(RGDL[dD]ALRGGGG))
 |  | 0,05 |  | CC(C)C[C@@H]1NC(=O)[C@H](C)NC(=O)[C@@H](CC(=O)O)NC(=O)[C@H](CC(C)C)NC(=O)[C@H](CC(=O)O)NC(=O)CNC(=O)[C@H](CCCNC(=N)N)NC(=O)CNC(=O)CNC(=O)CNC(=O)CNC(=O)CNC(=O)CNC(=O)[C@H](CCCNC(=N)N)NC1=O [compound 271594] (cyclo(RGDL[dD]ALRGGGGGG))
 |  | 0,03 |  | CC(C)C[C@@H]1NC(=O)[C@H](C)NC(=O)[C@@H](CC(=O)O)NC(=O)[C@H](CC(C)C)NC(=O)[C@H](CC(=O)O)NC(=O)CNC(=O)[C@H](CCCNC(=N)N)NC(=O)CNC(=O)CNC(=O)CNC(=O)[C@H](CCCNC(=N)N)NC1=O [compound 271593] (cyclo(RGDL[dD]ALRGGG))
1,523 | 0,03 |  |  | cyclo-(RGDLdALR-Abu-Abu) [EMD 272914]
 |  | 1,00 | 7.12 | CC(=O)N[C@@H](CCCNC(=N)N)C(=O)N[C@H](C(=O)N[C@@H](CC(=O)O)C(=O)N[C@@H](CC(C)C)C(=O)N[C@@H](CC(=O)O)C(=O)N[C@@H](CO)C(=O)N[C@@H](CC(C)C)C(=O)N[C@@H](CCCNC(=N)N)C(N)=O)[C@@H](C)O [compound 271293] (Ac-RTDLDSLR-NH2)
 |  | 0,05 |  | CC(C)C[C@@H]1NC(=O)[C@H](C)NC(=O)[C@@H](CC(=O)O)NC(=O)[C@H](CC(C)C)NC(=O)[C@H](CC(=O)O)NC(=O)CNC(=O)[C@H](CCCNC(=N)N)NC(=O)CNC(=O)CNC(=O)[C@H](CCCNC(=N)N)NC1=O [compound 271592] (cyclo(RGDL[dD]ALRGG))
1,523 | 0,03 |  |  | CC(C)C[C@@H]1NC(=O)[C@H](C)NC(=O)[C@@H](CC(=O)O)NC(=O)[C@H](CC(C)C)NC(=O)[C@H](CC(=O)O)NC(=O)CNC(=O)[C@H](CCCNC(=N)N)NC(=O)CNC(=O)CNC(=O)CNC(=O)[C@H](CCCNC(=N)N)NC1=O [EMD 271593] (cyclo(RGDL[dD]ALRGGG))
1,444 | 0,036 |  |  | cyclo-(RGDLdALR-Aha-Aha) [EMD 272958]
